Measurements reported in article PMC3914206.

Assays:
Assay type in all cases: binding
Set-up in all cases: KINOMEscan: ABL1(F317L)-phosphorylated / KINOMEscan: ABL1(H396P)-nonphosphorylated / KINOMEscan: ABL1(H396P)-phosphorylated / KINOMEscan: ABL1(M351T)-phosphorylated / KINOMEscan: ABL1(T315I)-phosphorylated / KINOMEscan: ABL1-nonphosphorylated / KINOMEscan: ABL1-phosphorylated / KINOMEscan: ACVR2A / KINOMEscan: ACVR2B / KINOMEscan: ADCK3 / KINOMEscan: ADCK4 / KINOMEscan: AKT1 / KINOMEscan: AKT3 / KINOMEscan: ALK / KINOMEscan: ARK5 / KINOMEscan: AURKA / KINOMEscan: AURKC / KINOMEscan: BIKE / KINOMEscan: BMPR1A / KINOMEscan: BMPR1B / KINOMEscan: BMX / KINOMEscan: BRK / KINOMEscan: BRSK1 / KINOMEscan: BRSK2 / KINOMEscan: CAMK1 / KINOMEscan: CAMK1D / KINOMEscan: CAMK1G / KINOMEscan: CAMK2A / KINOMEscan: CAMK2B / KINOMEscan: AAK1 / KINOMEscan: CAMK2D / KINOMEscan: CAMK2G / KINOMEscan: ABL1(F317I)-nonphosphorylated / KINOMEscan: ABL1(F317I)-phosphorylated / KINOMEscan: ABL1(F317L)-nonphosphorylated: unit: % Ctrl
Details in all cases: Compound Concentration 10 µM
[1] = biological target: T1, panel of 442 kinases (Homo sapiens, UniProt Q13557)
T1 construct: purchased KINOMEscan
T1 sequence (Q13557 whole entry): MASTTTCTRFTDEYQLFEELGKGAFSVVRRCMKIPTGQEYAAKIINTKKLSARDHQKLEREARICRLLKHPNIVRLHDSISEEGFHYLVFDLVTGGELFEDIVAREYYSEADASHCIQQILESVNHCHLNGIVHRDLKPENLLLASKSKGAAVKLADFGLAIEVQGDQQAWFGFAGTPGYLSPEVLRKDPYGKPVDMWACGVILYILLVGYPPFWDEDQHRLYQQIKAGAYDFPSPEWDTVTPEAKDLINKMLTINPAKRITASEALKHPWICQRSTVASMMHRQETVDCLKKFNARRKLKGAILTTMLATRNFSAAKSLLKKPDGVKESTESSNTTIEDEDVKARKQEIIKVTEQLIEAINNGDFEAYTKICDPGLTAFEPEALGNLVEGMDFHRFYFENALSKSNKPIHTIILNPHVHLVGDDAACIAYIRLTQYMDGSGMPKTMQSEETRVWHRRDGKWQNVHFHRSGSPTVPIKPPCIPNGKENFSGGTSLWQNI
From the text: (§1) We assessed the selectivity of members of this scaffold using the KINOMEscan methodology across a near comprehensive panel of 442 kinases [[18,27]].

[2] = biological target: T2, panel of 442 kinases (Homo sapiens, UniProt P51956)
T2 construct: purchased KINOMEscan
T2 sequence (P51956 1-506): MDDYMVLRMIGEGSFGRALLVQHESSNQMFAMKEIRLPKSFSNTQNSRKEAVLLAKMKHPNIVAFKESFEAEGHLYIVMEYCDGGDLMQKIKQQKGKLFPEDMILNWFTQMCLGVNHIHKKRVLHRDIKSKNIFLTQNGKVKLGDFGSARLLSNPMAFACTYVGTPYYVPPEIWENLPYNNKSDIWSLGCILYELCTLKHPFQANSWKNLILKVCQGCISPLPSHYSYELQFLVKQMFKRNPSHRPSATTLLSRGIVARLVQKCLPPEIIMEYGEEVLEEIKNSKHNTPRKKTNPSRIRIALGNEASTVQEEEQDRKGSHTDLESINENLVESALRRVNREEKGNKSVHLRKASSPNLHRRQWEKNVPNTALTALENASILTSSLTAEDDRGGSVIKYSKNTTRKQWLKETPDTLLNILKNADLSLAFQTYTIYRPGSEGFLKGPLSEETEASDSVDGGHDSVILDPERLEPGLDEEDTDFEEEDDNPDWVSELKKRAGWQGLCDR
From the text: as §1

[3] = biological target: T3, panel of 442 kinases (Homo sapiens, UniProt Q5VT25)
T3 construct: purchased KINOMEscan
T3 sequence (Q5VT25 whole entry): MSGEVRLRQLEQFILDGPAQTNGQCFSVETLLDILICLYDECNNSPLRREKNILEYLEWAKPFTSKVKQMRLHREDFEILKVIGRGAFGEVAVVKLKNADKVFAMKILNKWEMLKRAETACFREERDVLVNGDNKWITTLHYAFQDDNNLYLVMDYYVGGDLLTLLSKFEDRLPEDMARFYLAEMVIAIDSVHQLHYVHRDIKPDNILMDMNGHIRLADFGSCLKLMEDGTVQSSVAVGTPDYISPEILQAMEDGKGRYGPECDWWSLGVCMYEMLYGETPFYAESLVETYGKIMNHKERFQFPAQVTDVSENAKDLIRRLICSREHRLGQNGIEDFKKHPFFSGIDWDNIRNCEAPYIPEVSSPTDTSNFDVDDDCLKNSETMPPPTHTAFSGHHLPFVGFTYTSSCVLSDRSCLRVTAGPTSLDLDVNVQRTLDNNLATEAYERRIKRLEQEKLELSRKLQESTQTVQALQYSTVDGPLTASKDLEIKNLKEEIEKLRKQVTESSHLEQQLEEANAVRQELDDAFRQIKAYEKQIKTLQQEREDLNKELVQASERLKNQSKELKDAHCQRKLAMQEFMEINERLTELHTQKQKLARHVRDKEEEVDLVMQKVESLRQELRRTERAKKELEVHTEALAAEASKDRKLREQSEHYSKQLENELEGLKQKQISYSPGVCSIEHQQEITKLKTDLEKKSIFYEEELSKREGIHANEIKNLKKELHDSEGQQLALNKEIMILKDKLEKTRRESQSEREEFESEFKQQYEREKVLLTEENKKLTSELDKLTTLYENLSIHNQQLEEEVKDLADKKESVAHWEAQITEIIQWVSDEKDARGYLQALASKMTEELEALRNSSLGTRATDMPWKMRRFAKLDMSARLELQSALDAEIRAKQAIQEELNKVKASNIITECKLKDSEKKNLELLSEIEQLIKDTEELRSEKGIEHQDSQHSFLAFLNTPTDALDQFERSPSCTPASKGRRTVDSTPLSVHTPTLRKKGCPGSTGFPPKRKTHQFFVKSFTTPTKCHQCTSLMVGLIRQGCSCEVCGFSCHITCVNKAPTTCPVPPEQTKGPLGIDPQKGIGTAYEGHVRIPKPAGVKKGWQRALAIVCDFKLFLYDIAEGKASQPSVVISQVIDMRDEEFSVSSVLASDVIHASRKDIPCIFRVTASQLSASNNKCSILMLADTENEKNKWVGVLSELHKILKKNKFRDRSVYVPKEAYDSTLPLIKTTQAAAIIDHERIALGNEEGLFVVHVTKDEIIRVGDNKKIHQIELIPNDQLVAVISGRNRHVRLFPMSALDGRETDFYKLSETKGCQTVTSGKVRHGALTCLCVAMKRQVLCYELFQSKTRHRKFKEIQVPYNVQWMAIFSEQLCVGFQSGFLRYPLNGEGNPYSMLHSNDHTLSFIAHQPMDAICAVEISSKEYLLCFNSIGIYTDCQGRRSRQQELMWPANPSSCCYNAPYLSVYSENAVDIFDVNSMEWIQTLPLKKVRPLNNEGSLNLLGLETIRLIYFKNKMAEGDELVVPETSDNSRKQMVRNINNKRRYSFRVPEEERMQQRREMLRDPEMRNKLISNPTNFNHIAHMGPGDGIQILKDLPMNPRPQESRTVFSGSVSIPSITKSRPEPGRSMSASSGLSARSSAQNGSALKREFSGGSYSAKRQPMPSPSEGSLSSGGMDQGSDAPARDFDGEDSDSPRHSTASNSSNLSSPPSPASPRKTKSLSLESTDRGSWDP
From the text: as §1

| SMILES | KINOMEscan: CAMK2D [1] | KINOMEscan: NEK3 [2] | KINOMEscan: MRCKA [3] |
| --- | --- | --- | --- |
| COc1cc(C(=O)N2CCC(N3CCN(C)CC3)CC2)ccc1Nc1ncc2c(n1)N(C)c1ccccc1C(=O)N2C [15 (LRRK2-IN-1)] | 28 | 100 | 100 |
| CCOc1cc(C(=O)N2CCC(N3CCN(C)CC3)CC2)ccc1Nc1ncc2c(n1)N(C1CCCC1)c1ccccc1C(=O)N2C [Compound 26] | 96 | 83 | 100 |
| COc1cc(C(=O)N2CCC(N3CCN(C)CC3)CC2)ccc1Nc1ncc2c(n1)N1CCc3cccc(c31)C(=O)N2C [Compound 24] | 62 | – | – |
| COc1cc(C(=O)N2CCC(N3CCN(C)CC3)CC2)ccc1Nc1ncc2c(n1)N(C1CCCC1)c1ccccc1C(=O)N2C [Compound 25, 11-cyclopentyl-2-((2-methoxy-4-(4-(4-methylpiperazin-1-yl)piperidine-1-carbonyl)phenyl)amino)-5-methyl-5H-benzo[e]pyrimido[5,4-b][1,4]diazepin-6(11H)-one] | 100 | 100 | 100 |
